Test results published in paper PMC6588697, “Lugdunin amplifies innate immune responses in the skin in synergy with host- and microbiota-derived factors” (Nature Communications, 2019).
Where “and” joins values, the source holds several entries; their conditions need not be identical. Equal entries are not always repeated. No end group written: not given here.

What was measured:
PHKs = test: CXCL8 expression in PHKs (qRT-PCR, normalized to actin); type: cell-based, human; conditions: for CXCL8 expression normalized to actin / CXCL8 induction by S. epidermidis CM with added peptide: PHKs; for CXCL8 expression normalized to actin / CXCL8 induction by S. epidermidis CM with added peptide / induction of CXCL8 expression in PHKs: 5 h; for induction of CXCL8 expression in PHKs: single treatment, 2 µM human AMPs or lugdunin, 0.8 µM (pro)-gallidermin or nisin
Description: Fig. 1 Lugdunin sensitizes epithelial cells for innate immune defense. a Primary human keratinocytes (PHKs) were pretreated with S. epidermidis conditioned medium (CM), indicated lugdunin concentrations, or the combination of both for 20 h. Subsequently, cells were infected with S. aureus for 1.5 h followed by cell lysis and determination of colony-forming units (CFUs). Shown is one representative experiment of three independent experiments with six technical replicates ± s.e.m. n.s., not significant. b Dorsal skin of mice was pretreated with S. epidermidis CM, 1.5 µg lugdunin alone or in combination with S. epidermidis CM for 24 h. Subsequently, S. aureus CFUs were determined. Horizontal lines represent the mean of each group ± s.e.m. c PHKs were treated with 2 μM lugdunin or with S. epidermidis CM alone or in combination for 20 h and subsequently expression of indicated antimicrobial peptides (AMPs) (respective protein names in brackets) was analyzed and normalized to actin. Shown is one representative experiment of three independent experiments with two technical replicates ± s.e.m. d PHKs were treated with 2 µM lugdunin or 100 ng/mL Pam2Cys for 5 h and subsequently the concentration of indicated cytokines in the supernatant was analyzed by LEGENDplex^TM (BioLegend). Shown is one representative experiment of three independent experiments with two technical replicates ± s.e.m. e PHKs were treated with increasing concentrations of lugdunin or 100 ng/mL Pam2Cys or Pam3Cys for 5 h and subsequently expression of chemokine (C-X-C motif) ligand 8 (CXCL8) was analyzed and normalized to actin. Shown is one representative experiment of three independent experiments, each with two technical replicates ± s.e.m. f, g Indicated cells were treated with 2 µM lugdunin or 100 ng/mL Pam2Cys as a positive control for 5 h and subsequently the concentration of CXCL8 (f) and interleukin-1α (IL-1α) (g) in the supernatant was analyzed by LEGENDplex^TM (BioLegend) and enzyme-linked immunosorbent assay (ELISA) (R&D Systems). Shown is one representative experiment of three independent experiments with two technical replicates ± s.e.m. Significant differences to control treatments were analyzed by ordinary one-way analysis of variance (ANOVA) followed by Dunnett’s multiple comparisons test (*P < 0.05; **P < 0.01; ***P < 0.001; ****P < 0.0001). n.d. = not detected. Source data are provided as a Source Data file
Fig. 4 Lugdunin amplifies the commensal-induced chemokine (C-X-C motif) ligand (CXCL8) induction. a Primary human keratinocytes (PHKs) were either treated with 2 μM of human antimicrobial peptides (AMPs) (black bars) or lugdunin (blue bars), or 0.8 μM (pro)-gallidermin or nisin (black bars), or in combination with S. epidermidis conditioned medium (CM) (gray and red striped bars) for 5 h, and subsequently expression of CXCL8 was analyzed and normalized to actin. Shown is one representative experiment of three independent experiments with two technical replicates ± s.e.m. b PHKs were treated with 2 μM human AMPs, 2 μM lugdunin, 0.8 μM of the other bacteriocins (gray bars) or the correspondent peptide combinations (white bars), or 50 ng/mL Pam2Cys, 10 ng/mL IL-1α, or S. epidermidis CM as controls (black bars), for 5 h and subsequently expression of CXCL8 was analyzed and normalized to actin. Shown is one representative experiment of three independent experiments with two technical replicates ± s.e.m. Significant differences to control treatments were analyzed by ordinary one-way analysis of variance (ANOVA) followed by Dunnett’s multiple comparisons test (***P < 0.001; ****P < 0.0001). Source data are provided as a Source Data file
After 5 h or 20 h of peptide treatment, PHKs were washed once with PBS, followed by the addition of RNA lysis buffer directly into the well. Total RNA was extracted using the Nucleospin RNA Kit (Macherey-Nagel) according to the manufacturer’s protocol. […]

P. aeruginosa = test: Antimicrobial testing (CFU) against P. aeruginosa; type: cell-based, Pseudomonas aeruginosa; conditions: 3 h
E. coli = test: Antimicrobial testing (CFU) against E. coli; type: cell-based, Escherichia coli; conditions: 3 h, mean
B. subtilis = test: Antimicrobial testing (CFU) against B. subtilis; type: cell-based, Bacillus subtilis; conditions: for B. subtilis CFU normalized to untreated control (1,00): 3 h, mean
Description: (§1) For bactericidal testing, logarithmically growing staphylococci were resuspended in PBS (Sigma) containing 0.1% TSB (Carl Roth) and colony-forming unit (CFU) was adjusted to 3 × 10^6 CFU/mL. Different concentrations of single peptides and their combinations were diluted in PBS containing 0.1% TSB and incubated with bacteria in triplicates for 3 h at 37 °C and 150 rpm orbital shaking. Subsequently, serial dilutions (10^–1–10^–4) of the bacterial suspensions were prepared in PBS and 20 µL of each dilution was spotted in duplicates onto TSB plates and incubated at 37 °C overnight. The next day, the number of CFU was analyzed and the percentage of viable bacteria was determined by normalizing to the untreated control (100%). Results are illustrated in a S. aureus killing curve. In each experiment, negative control replicates (PBS + 0.1% TSB) as well as sterility control replicates were included.
(§2) Supplementary Figure 7: Efficiency of Lugdunin and DCD -1(L) combinations in 107 […]
(§3) logarithmically grown bacteria were incubated with indicated combinations of 109 lugdunin and DCD-1(L) in PBS containing 0.1% TSB at 37 °C orbital shaking. After 3 110 hours of incubation several dilutions of the bacterial suspensions were plated onto TSB 111 agar pl ates and incubated over night at 37 °C. The next day bacterial CFU were 112 counted. Each experiment was performed in triplicates. Data represent the mean 113 percentage of CFU normalized to the untreated control. Data represent the mean of at 114 least three independent experiments. 115
(§4) (1 picture or pasted object on this page, not shown here)

P. mirabilis = test: Antimicrobial testing (CFU) against P. mirabilis; type: cell-based, Proteus mirabilis; conditions: 3 h, mean
Description: as §1, §2, §3, §4

E. faecalis = test: Antimicrobial testing (CFU) against E. faecalis; type: cell-based, Enterococcus faecalis; conditions: 3 h, mean
S. epidermidis = test: Antimicrobial testing (CFU) against S. epidermidis; type: cell-based, Staphylococcus epidermidis; conditions: 3 h, mean
Description: as §1, §2, §3, §4

[1] = 2 µM human AMPs, 2 µM lugdunin, 0.8 µM other bacteriocins or their combinations, 50 ng/mL Pam2Cys, 10 ng/mL IL-1α, S. epidermidis CM, two technical replicates, Fig 4b
[2] = peptide (2 µM human AMPs or lugdunin, 0.8 µM gallidermin or nisin) in combination with S. epidermidis CM, two technical replicates, Fig 4a
[3] = single peptide 1 µM, PBS + 0.1% TSB, 37 °C, mean of at least three experiments
[4] = single treatment: 2 µM human AMPs or lugdunin, 0.8 µM (pro)-gallidermin or nisin, or S. epidermidis CM, M = 1, two technical replicates (rows), Fig 4a

| Substance | CXCL8 expression normalized to actin (PHKs; [1]) | CXCL8 expression normalized to actin (PHKs; [2]) | CXCL8 induction by S. epidermidis CM with added peptide (PHKs; Fig 4a) | induction of CXCL8 expression in PHKs (PHKs; S. epidermidis CM, Fig 4a) | P. aeruginosa CFU normalized to untreated control (1,00) (P. aeruginosa; [3]) | P. aeruginosa CFU normalized to untreated control (1,00) (P. aeruginosa; single peptide 2 µM, mean) | E. coli CFU normalized to untreated control (1,00) (E. coli; single peptide 1 µM) | E. coli CFU normalized to untreated control (1,00) (E. coli; single peptide 2 µM) | B. subtilis CFU normalized to untreated control (1,00) (B. subtilis; single peptide 1 µM) | B. subtilis CFU normalized to untreated control (1,00) (B. subtilis; single peptide 2 µM) | P. mirabilis CFU normalized to untreated control (1,00) (P. mirabilis; single peptide 1 µM) | P. mirabilis CFU normalized to untreated control (1,00) (P. mirabilis; single peptide 2 µM) | E. faecalis CFU normalized to untreated control (1,00) (E. faecalis; single peptide 1 µM) | E. faecalis CFU normalized to untreated control (1,00) (E. faecalis; single peptide 2 µM) | S. epidermidis CFU normalized to untreated control (1,00) (S. epidermidis; single peptide 1 µM) | S. epidermidis CFU normalized to untreated control (1,00) (S. epidermidis; single peptide 2 µM) | CXCL8 expression normalized to actin (PHKs; [4]) | further results |
| --- | --- | --- | --- | --- | --- | --- | --- | --- | --- | --- | --- | --- | --- | --- | --- | --- | --- | --- |
| IASKFLCTPGCAKTGSFNSYCC (also: bicyclic or more (positions not given here)) [Gallidermin, bacteriocin isolated from Staphylococcus gallinarum] | 3.22 and 3.395 | 2.713 and 2.789 | completely blocked | not able to induce CXCL8 expression | – | – | – | – | – | – | – | – | – | – | – | – | – | – |
| ITSISLCTPGCKTGALMGCNMKTATCHCSIHVSK (not fully specified (bridges); also: lanthionine rings, places not given here) [Nisin, bacteriocin of Lactococcus lactis, purchased from Sigma] | 3.325 and 3.22 | 88.3403 and 93.3773 | non-significant increase | not able to induce CXCL8 expression | – | – | – | – | – | – | – | – | – | – | – | – | – | – |
| LLGDFFRKSKEKIGKEFKRIVQRIKDFLRNLVPRTES [LL-37, human cathelicidin AMP] | 1.54 and 1.645 | 38.5859 and 33.1285 | – | not able to induce CXCL8 expression | – | – | – | – | – | – | – | – | – | – | – | – | – | – |
| Lugdunin | 43.47 and 44.695 | 1093.7 and 1265.07 | over 1000 fold | over 40 fold | 1,34 | 1,01 | 1,05 | 1,34 | 0,81 | 0,60 | 1,13 | 0,84 | 1,21 | 1,27 | 1,08 | 0,86 | 44.695 and 43.47 | P. aeruginosa CFU normalized to untreated control (1,00) (P. aeruginosa; single peptide 3 µM, mean): 1,41; E. coli CFU normalized to untreated control (1,00) (E. coli; single peptide 3 µM): 1,27; B. subtilis CFU normalized to untreated control (1,00) (B. subtilis; single peptide 3 µM): 0,44; susceptibility of B. subtilis (in words) (B. subtilis; text to Supp Fig 7): susceptible; P. mirabilis CFU normalized to untreated control (1,00) (P. mirabilis; single peptide 3 µM): 0,98; E. faecalis CFU normalized to untreated control (1,00) (E. faecalis; single peptide 3 µM): 0,99; S. epidermidis CFU normalized to untreated control (1,00) (S. epidermidis; single peptide 3 µM): 1,20; CXCL8 expression normalized to actin (PHKs; lugdunin 0.5 µM, medium = 1, technical replicates, Fig 1e): 1.93 and 1.44 and 0.406 and 0.518; CXCL8 expression normalized to actin (PHKs; lugdunin 1 µM, technical replicates, Fig 1e): 10.23 and 9.29 and 0.973 and 1.087; CXCL8 expression normalized to actin (PHKs; lugdunin 2 µM, technical replicates, Fig 1e): 43.4456 and 47.5424 and 22.549 and 29.548; CXCL8 expression normalized to actin (PHKs; lugdunin 3 µM, technical replicates, Fig 1e): 64.669 and 66.487; CXCL8 expression normalized to actin (PHKs; lugdunin 5 µM, technical replicates, Fig 1e): 11.7628 and 11.128; CXCL8 expression normalized to actin (PHKs; lugdunin 10 µM, technical replicates, Fig 1e): 2.0508 and 6.298; lugdunin concentrations that induced expression and release of CXCL8 in PHKs (PHKs; higher concentrations did not induce CXCL8 production, text to Fig 1d, e): up to 3 µM |
| MEAVKEKNELFDLDVKVNAKESNDSGAEPRIASKFLCTPGCAKTGSFNSYCC [Pro-Gallidermin, non-bactericidal pro-form of gallidermin] | 3.465 and 3.43 | – | – | – | – | – | – | – | – | – | – | – | – | – | – | – | – | – |
| SSLLEKGLDGAKKAVGGLGKLGKDAVEDLESVGKGAVHDVKDVLDSV [DCD-1, dermcidin-derived human AMP of eccrine sweat glands] | 13.37 and 13.02 | 61.3666 and 64.6468 | – | 10 fold | 0,93 | 1,21 | 1,31 | 1,87 | 1,14 | 1,04 | 1,05 | 0,98 | 1,48 | 1,58 | 1,51 | 0,94 | 13.02 and 13.37 | – |
| SSLLEKGLDGAKKAVGGLGKLGKDAVEDLESVGKGAVHDVKDVLDSVL [DCD-1L, dermcidin-derived human AMP of eccrine sweat glands] | 2.31 and 2.52 | 45.0983 and 49.3507 | – | – | 1,39 | 1,19 | 1,26 | 1,92 | 0,96 | 0,63 | 0,95 | 1,10 | 1,40 | 1,55 | 1,43 | 1,33 | 2.52 and 2.31 | – |
